Calls of active or inactive are those of the source.
Tests used:
[1] = target: T1, Intestinal-type alkaline phosphatase (Homo sapiens, UniProt P09923); experiment: human intestinal alkaline phosphatase activators, dose response, biochemical, luminescence, uHTS hits (AID 463120); format: functional
[2] = target: T2, Zinc finger protein mex-5 (Caenorhabditis elegans, UniProt Q9XUB2); experiment: potency of MEX-5 RNA-binding blockers – biochemical, C. elegans, fluorescence polarization, dose response (AID 1960)
T2 sequence (Q9XUB2 whole entry): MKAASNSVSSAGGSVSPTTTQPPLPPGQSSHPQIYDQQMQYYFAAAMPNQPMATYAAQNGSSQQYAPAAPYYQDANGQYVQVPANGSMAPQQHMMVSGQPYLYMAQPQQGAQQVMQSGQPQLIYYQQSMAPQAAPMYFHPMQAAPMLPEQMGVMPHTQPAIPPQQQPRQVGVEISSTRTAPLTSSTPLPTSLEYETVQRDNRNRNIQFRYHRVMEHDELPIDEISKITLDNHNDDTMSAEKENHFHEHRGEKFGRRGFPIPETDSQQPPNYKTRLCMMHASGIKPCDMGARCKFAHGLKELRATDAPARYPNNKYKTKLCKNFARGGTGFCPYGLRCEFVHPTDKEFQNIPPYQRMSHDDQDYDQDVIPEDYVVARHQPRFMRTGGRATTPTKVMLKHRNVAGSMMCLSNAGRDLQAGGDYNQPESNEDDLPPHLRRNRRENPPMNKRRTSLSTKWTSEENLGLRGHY

[3] = target: T3, RNA-binding protein pos-1 (Caenorhabditis elegans, UniProt G5EF15); experiment: disruptors of C. elegans POS-1 RNA interaction – biochemical, fluorescence polarization, dose response (AID 1964);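 note: purified POS-1 fused to maltose binding protein made in E. coli; potency of compounds blocking POS-1 binding to fluorescent RNA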
T3 sequence (G5EF15 whole entry): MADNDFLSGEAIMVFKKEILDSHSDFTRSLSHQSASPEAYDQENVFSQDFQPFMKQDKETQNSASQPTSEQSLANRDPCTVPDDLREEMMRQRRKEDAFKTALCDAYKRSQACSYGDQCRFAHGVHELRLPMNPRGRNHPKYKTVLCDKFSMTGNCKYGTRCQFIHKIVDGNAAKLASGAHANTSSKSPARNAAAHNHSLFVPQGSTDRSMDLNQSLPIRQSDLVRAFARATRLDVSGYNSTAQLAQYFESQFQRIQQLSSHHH

[4] = target: T4, Alkaline phosphatase, tissue-nonspecific isozyme (Homo sapiens, UniProt P05186); experiment: activation of tissue-nonspecific alkaline phosphatase – biochemical, TNAP isozyme, human IAP uHTS hits, selectivity assay for human IAP activator project, dose response (AID 488886); format: functional;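 note: potency of compounds raising TNAP activity as a selectivity check on IAP activators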
T4 sequence (P05186 whole entry): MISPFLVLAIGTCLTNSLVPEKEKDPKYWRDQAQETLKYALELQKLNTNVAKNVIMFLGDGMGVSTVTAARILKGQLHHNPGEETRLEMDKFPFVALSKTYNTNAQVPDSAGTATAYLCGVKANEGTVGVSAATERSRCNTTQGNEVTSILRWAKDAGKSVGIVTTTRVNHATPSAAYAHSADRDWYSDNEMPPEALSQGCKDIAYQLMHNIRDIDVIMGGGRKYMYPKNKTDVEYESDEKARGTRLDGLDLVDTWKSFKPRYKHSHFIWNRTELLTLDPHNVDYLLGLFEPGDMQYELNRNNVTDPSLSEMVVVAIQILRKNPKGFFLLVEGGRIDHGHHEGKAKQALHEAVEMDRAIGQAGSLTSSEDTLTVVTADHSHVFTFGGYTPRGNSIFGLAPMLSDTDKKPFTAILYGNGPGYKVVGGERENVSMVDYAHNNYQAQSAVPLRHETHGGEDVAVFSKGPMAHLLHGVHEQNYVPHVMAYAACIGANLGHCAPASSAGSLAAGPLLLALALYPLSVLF

[5] = target: T5, Intestinal-type alkaline phosphatase (Mus musculus, UniProt P24822); experiment: PubChem AID 488874; format: functional
T5 sequence (P24822 whole entry): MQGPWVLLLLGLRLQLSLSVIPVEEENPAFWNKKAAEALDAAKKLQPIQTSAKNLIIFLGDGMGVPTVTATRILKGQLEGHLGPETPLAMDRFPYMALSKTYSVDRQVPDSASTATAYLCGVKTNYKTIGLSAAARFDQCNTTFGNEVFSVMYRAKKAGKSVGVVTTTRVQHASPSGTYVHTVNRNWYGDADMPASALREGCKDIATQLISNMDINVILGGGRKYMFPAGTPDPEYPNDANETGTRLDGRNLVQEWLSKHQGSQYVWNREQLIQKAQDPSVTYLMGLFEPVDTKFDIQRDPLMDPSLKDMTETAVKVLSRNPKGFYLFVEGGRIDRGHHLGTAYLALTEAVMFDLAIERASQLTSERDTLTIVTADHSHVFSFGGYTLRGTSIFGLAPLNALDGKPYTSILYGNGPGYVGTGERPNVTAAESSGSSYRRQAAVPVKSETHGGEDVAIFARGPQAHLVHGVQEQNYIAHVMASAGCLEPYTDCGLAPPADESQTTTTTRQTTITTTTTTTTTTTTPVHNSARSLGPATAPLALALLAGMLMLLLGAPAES

[6] = target: T1, Intestinal-type alkaline phosphatase; experiment: activation of human intestinal alkaline phosphatase – biochemical, luminescent, uHTS hits, set 2, dose response (AID 488817); format: functional;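 note: potency of activators that raise enzyme activity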
[7] = target: T5, Intestinal-type alkaline phosphatase; experiment: PubChem AID 488875; format: functional
Staphylococcus aureus = experiment: Inhibitors of Bacterial Quorum Sensing Structure Activity Relationship (SAR) Analysis: Dose Response Assay. [Related pubchem assays: 700, 527 ]; format: functional, organism-based
[8] = target: Female germline-specific tumor suppressor gld-1 (Caenorhabditis elegans, UniProt Q17339); experiment: blockers of GLD-1/TGE RNA complex formation – biochemical, fluorescence polarization, C. elegans, dose response (AID 2802);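 note: fluorescence polarization of labeled TGE RNA bound by purified gld-1 protein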
Sequence of Female germline-specific tumor suppressor gld-1 (Q17339 whole entry): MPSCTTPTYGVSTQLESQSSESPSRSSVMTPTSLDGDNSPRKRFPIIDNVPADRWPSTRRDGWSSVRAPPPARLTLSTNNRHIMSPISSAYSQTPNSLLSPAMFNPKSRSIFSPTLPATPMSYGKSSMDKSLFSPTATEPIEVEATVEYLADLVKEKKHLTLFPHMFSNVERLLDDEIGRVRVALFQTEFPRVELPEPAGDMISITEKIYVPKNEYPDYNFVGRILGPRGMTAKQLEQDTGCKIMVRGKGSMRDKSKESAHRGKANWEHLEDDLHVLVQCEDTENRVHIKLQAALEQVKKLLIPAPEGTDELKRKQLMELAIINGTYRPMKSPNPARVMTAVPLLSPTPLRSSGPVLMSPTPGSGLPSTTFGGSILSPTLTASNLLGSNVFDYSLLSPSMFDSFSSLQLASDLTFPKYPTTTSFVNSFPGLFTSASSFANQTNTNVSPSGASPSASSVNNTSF

Protein Rev = Protein Rev (Human immunodeficiency virus type 1 group M subtype B (isolate HXB2)(HIV-1), UniProt P04618); experiment: blockers of HIV Rev/RRE RNA complex – biochemical, fluorescence polarization, HIV-1, dose response (AID 434976); parameters: species or system Human immunodeficiency virus 1
Sequence of Protein Rev (P04618 whole entry): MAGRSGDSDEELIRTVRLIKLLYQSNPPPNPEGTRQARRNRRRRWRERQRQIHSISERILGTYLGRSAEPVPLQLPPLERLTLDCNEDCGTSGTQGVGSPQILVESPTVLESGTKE

Estrogen receptor beta [9] = target: T6, Estrogen receptor beta (Homo sapiens, UniProt Q92731);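 note: recombinant ER-beta bound to coactivator SRC1 peptide in presence of estradiol agonist; inhibitors block coactivator peptide binding and lower the FRET signal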
T6 sequence (Q92731 whole entry): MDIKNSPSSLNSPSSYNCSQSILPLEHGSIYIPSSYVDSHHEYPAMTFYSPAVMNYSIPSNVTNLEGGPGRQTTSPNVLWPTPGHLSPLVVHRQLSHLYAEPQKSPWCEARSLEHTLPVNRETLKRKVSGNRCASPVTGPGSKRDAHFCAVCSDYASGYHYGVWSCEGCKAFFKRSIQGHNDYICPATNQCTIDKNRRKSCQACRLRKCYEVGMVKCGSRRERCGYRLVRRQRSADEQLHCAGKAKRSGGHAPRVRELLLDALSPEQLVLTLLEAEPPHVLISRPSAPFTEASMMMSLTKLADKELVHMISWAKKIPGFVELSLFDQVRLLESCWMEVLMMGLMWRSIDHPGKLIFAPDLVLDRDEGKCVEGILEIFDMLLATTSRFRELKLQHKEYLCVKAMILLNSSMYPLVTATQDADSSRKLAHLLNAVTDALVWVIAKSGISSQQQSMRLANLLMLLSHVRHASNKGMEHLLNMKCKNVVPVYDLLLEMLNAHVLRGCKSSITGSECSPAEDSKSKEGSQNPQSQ

[10] = RKO cell viability reduction, dose response, CellTiter-Glo luminescence (AID 1117322); format: functional
[11] = rise of 4N DNA cells, HeLa – IC50, dose response (AID 1117351); format: functional, cell-based
[12] = rise of 2N DNA cells, HeLa – IC50, dose response (AID 1117349); format: functional, cell-based
[13] = cytotoxicity toward Colo320 cells – cell-based, CellTiter-Glo luminescence, IC50, dose response (AID 1117334); format: functional; settings: COLO 320
[14] = viability loss of HPDE-C7K cells – cell-based, fluorescence, HTS, primary screen (AID 431); format: functional; settings: Homo sapiens
Large T antigen = Large T antigen (Simian virus 40, UniProt P03070); experiment: A confirmatory biochemical assay using the ADP-Hunter methodology, purified TAg, and ATP to quantify activity of synthesized compounds that inhibit the ATPase activity of Tag (3). [Related pubchem assays (depositor defined):AID1903, AID1909, AID2102, AID2501, AID2615, AID2775, AID435001, AID449729]; parameters: species or system Betapolyomavirus macacae
Sequence of Large T antigen (P03070 whole entry): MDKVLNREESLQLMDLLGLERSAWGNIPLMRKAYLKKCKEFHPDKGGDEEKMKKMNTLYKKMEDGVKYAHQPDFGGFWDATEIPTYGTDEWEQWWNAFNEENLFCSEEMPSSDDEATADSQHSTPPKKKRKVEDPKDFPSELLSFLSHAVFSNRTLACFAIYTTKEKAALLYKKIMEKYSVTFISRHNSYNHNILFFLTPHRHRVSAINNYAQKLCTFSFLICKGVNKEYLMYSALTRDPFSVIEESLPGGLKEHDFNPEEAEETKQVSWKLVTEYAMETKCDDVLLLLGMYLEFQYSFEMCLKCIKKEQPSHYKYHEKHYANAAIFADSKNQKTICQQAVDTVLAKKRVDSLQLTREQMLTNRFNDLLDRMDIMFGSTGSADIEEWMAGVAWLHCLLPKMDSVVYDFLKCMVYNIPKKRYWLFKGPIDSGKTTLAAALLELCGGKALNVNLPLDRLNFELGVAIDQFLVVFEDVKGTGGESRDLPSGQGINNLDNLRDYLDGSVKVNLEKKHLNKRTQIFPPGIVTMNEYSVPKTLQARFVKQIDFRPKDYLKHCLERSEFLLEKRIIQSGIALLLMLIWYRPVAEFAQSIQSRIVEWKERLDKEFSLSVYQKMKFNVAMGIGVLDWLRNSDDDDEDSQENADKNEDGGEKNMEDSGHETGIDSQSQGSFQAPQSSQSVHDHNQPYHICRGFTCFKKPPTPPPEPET

[15] = target: T7, Calpain-2 catalytic subunit (Sus scrofa, UniProt P43367); experiment: m-calpain protease blockers, concentration series – biochemical, fluorogenic peptide substrate, dose response (AID 1420); format: functional
T7 sequence (P43367 whole entry): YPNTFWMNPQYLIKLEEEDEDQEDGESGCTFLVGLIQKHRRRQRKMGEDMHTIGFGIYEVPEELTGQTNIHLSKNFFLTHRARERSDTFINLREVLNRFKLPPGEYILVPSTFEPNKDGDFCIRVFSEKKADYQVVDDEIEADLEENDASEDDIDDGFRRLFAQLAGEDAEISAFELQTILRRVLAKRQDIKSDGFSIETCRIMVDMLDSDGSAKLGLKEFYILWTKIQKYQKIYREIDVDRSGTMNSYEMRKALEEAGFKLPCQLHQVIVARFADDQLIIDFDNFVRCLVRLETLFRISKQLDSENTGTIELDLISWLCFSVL

[16] = CellTiter-Glo luminescence survival assay, SW480 colon tumor line, concentration-response curve, half-maximal inhibitory concentration (AID 1117338); format: functional
[17] = cytotoxicity toward HT-29 cells – cell-based, CellTiter-Glo luminescence, IC50, dose response (AID 1117330); format: functional
[18] = target: Envelope glycoprotein gp160 (Human immunodeficiency virus 1, UniProt Q6QLK5); experiment: cell-free HIV fusion peptide-binding blockers – biochemical, uHTS, fluorescence dequenching, […] (AID 1986)
Sequence of Envelope glycoprotein gp160 (Q6QLK5 whole entry, the tested form may be a part): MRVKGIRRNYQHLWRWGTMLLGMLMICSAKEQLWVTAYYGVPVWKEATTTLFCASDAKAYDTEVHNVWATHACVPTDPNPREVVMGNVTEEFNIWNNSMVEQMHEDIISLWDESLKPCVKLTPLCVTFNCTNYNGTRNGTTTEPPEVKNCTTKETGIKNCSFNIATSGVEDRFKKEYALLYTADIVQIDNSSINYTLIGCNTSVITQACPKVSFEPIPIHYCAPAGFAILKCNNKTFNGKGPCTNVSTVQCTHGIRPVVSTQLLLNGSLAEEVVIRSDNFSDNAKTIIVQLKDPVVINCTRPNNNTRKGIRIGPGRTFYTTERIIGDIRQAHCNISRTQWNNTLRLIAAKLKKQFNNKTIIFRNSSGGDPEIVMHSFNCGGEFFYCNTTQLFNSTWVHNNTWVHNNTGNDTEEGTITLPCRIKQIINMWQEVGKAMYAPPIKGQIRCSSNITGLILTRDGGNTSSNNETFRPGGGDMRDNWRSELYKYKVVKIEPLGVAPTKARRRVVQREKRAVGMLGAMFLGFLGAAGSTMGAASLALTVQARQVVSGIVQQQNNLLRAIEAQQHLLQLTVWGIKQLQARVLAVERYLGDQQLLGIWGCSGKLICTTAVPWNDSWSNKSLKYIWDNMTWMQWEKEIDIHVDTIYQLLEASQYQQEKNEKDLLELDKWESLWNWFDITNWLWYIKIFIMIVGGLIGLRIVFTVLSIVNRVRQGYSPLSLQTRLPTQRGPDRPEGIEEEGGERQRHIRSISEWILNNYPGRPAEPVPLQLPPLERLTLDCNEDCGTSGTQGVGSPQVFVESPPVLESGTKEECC

Estrogen receptor beta [19] = target: T6, Estrogen receptor beta; experiment: blockers of SRC-3 recruitment to ERβ – biochemical, ELISA, streptavidin-HRP readout, orthogonal assay, confirmation (AID 1060)
[20] = SNU-C1 cell viability reduction, dose response, CellTiter-Glo luminescence (AID 1117323); format: functional, cell-based
[21] = cytotoxicity toward HCT116 cells – cell-based, CellTiter-Glo luminescence, IC50, dose response (AID 1117332); format: functional; settings: HCT-116
[22] = glucagon-like peptide-1 release potency in STC-1, concentration-response, half-maximal inhibitory concentration in the STC-1 line (AID 1117345); format: functional, cell-based
[23] = HPDE-C7 pancreatic duct cell viability loss – fluorescence, HTS (AID 430); format: functional, cell-based; settings: Homo sapiens
[24] = Potency on glucagon-like peptide 1 release, dose-response in NCI-H716 cell line, half maximal inhibitory concentration (AID 1117344); format: functional, cell-based
[25] = HCT116 cell viability decrease, GSK3B pretreatment – CellTiter-Glo, IC50, dose response (AID 1117339); format: functional; settings: HCT-116
Aminopeptidase N = target: T8, Aminopeptidase N (Plasmodium falciparum FcB1/Columbia, UniProt O96935); experiment: malaria alanyl aminopeptidase activity blockers – biochemical, fluorogenic H-Leu-NHMec substrate, 1536-well (AID 1445); parameters: species or system Plasmodium falciparum 3D7, 3D7
T8 sequence (O96935 whole entry): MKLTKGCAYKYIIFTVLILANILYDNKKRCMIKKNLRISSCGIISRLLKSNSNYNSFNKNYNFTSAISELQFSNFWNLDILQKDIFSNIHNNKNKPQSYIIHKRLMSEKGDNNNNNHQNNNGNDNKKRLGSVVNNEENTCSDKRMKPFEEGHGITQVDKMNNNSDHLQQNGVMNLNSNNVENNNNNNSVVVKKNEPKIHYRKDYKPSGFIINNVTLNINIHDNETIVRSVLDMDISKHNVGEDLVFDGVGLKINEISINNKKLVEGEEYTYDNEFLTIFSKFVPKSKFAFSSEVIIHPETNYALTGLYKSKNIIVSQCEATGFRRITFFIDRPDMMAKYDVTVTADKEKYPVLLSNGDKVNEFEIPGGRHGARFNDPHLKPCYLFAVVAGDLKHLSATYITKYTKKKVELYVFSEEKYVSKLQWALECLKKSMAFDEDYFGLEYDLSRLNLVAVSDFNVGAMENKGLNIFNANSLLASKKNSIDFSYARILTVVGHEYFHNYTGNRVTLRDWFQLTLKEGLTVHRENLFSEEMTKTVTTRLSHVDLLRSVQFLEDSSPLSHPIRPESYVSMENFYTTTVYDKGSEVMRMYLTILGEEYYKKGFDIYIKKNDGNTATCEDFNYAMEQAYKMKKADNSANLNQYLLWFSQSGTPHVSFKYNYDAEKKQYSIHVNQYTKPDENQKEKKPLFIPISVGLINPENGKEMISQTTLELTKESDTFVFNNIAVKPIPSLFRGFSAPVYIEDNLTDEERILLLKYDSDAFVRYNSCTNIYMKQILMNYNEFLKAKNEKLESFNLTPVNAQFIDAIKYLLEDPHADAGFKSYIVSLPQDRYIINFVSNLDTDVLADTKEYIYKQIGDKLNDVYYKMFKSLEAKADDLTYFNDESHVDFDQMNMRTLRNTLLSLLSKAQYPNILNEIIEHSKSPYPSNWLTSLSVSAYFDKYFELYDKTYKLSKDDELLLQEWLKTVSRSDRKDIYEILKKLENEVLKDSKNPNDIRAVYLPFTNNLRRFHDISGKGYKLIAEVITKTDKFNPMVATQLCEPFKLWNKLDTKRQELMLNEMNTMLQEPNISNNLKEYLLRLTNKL

[26] = target: Induced myeloid leukemia cell differentiation protein Mcl-1 (Homo sapiens, UniProt Q07820); format: functional
Sequence of Induced myeloid leukemia cell differentiation protein Mcl-1 (Q07820 whole entry): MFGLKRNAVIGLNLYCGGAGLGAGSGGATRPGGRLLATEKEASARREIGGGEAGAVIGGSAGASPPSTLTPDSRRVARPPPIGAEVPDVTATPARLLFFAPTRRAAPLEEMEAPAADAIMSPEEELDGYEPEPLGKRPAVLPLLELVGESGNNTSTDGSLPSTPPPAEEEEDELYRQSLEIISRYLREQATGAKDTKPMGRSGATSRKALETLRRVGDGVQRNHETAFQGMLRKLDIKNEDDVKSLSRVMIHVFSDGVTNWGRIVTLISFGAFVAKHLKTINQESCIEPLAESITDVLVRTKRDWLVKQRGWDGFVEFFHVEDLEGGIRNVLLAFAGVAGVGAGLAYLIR

[27] = Reduced DLD-1 viability, concentration-response, CellTiter-Glo luminescence (AID 1117352); format: functional

T1 sequence (P09923 whole entry): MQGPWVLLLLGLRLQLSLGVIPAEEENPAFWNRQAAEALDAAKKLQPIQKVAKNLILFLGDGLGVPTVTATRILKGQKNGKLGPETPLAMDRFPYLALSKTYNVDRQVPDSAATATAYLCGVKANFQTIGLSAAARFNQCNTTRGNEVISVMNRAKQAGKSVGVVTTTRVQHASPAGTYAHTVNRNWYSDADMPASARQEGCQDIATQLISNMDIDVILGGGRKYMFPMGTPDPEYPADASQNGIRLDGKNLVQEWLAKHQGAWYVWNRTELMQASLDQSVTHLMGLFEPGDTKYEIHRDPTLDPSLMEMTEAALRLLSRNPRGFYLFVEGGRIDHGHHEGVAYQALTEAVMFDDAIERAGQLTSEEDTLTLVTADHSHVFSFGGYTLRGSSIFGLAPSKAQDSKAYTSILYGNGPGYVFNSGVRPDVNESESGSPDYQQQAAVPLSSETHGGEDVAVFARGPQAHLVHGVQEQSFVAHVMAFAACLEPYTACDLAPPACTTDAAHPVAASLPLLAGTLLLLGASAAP

O=C(NNC(=S)NC(=O)c1ccccc1[N+](=O)[O-])c1ccccc1O
EC50 [1]: 9.16 µM (active)
EC50 [2]: 32.2 µM (active)
EC50 [3]: 134 µM (active)
EC50 [4]: 11.2 µM (active)
IC50 [5]: > 100 µM (inactive)
EC50 [6]: 9.62 µM (active)
EC50 [7]: > 100 µM (inactive)

O=C(O)c1ccccc1Nc1cccc2c1C(=O)c1ccccc1C2=O
IC50 (Staphylococcus aureus): 1.05 µM (active)

CC1CN(C2=Nc3cccc4cccc2c34)CC(C)O1 (stereo unspecified)
IC50 [8]: 9.4 µM (active)
IC50 (Protein Rev): 18.2 µM (not active)

Oc1c(Cl)cc(Cl)cc1Sc1cc(Cl)cc(Cl)c1O [BITHIONOL]
IC50 (Estrogen receptor beta [9]): 8.15 µM (active)
IC50 [10]: 1 nM (active)
IC50 [11]: > 10 µM (inactive)
IC50 [12]: > 10 µM (inactive)
IC50 [13]: 15 nM (active)
EC50 [14]: 1.34 µM (active)
IC50 (Large T antigen): 35.7 µM (active)
IC50 [15]: 4.75 µM (not active)
IC50 [16]: 1 nM (active)
IC50 [17]: 996 nM (active)
IC50 [18]: 6.16 µM (active)
IC50 (Estrogen receptor beta [19]): > 109 µM (not active)
IC50 [20]: 8.67 nM (active)
IC50 [21]: 1 nM (active)
IC50 [22]: > 20 µM (inactive)
EC50 [23]: 1.21 µM (active)
IC50 [24]: 19.4 µM (inactive)
IC50 [25]: 1 nM (active)
IC50 (Aminopeptidase N): 42.9 µM (active)
IC50 [26]: 1.9 µM (active)
IC50 [27]: 1 nM (active)

Source: ChEMBL document CHEMBL1201862, “PubChem BioAssay data set” (2004)
